Experimental data published in patent US20240239792A1, “MODULATORS OF BCL-2 OR BCL-2/BCL-XL AND USES THEREOF” (APPICINE THERAPEUTICS (HK) LIMITED, priority 2021, published 2024).

How the values were obtained:
BCL-2 = molecular target: T1, BCL-2 (Homo sapiens, UniProt P10415); assay: HTRF BCL-2/BAK assay (Cisbio); format: binding; conditions: recombinant human Tag1-BCL-2 2 nM, Tag2-BAK 10 nM
T1 construct: purchased Cisbio 63ADK000CB01PEG
Experimental: (§1) Then the pre-mixed anti-Tag1-Eu^3+ and anti-tag2-XL665 were added to the plate and further incubated at room temperature for another 2 hours. The signals ([…]) were read on Envision 2104 instrument. The IC50 for each compound was derived from fitting the signal of 665/615 nM to the increasing compound concentration.
(§2) Using the above assays, the following compounds were tested.

BCL-XL = molecular target: T2, BCL-XL (Homo sapiens, UniProt Q07817); assay: HTRF BCL-XL/BAK assay (Cisbio); format: binding; conditions: recombinant human Tag1-BCL-XL 2 nM, Tag2-BAK 5 nM
T2 construct: purchased Cisbio 63ADK000CB04PEG
Experimental: as §1, §2

DOHH2 cells = assay: CellTiter-Glo cell proliferation assay, DOHH2 cells; format: cell-based; conditions: Homo sapiens, DOHH-2, 72 hours
Outline: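 DOHH2 cells seeded in DMEM + 10% FBS, exposed to serially diluted compound for 72 h at 37 °C, 5% CO2. Viability read by CellTiter-Glo luminescence; GI50 calculated.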

T1 sequence (P10415 whole entry): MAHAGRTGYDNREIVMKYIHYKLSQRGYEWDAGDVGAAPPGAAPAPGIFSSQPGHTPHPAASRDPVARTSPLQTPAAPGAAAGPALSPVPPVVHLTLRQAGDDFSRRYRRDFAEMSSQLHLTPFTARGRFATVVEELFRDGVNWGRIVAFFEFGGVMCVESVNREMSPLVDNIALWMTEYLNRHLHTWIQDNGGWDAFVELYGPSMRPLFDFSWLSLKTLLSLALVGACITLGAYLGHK
T2 sequence (Q07817 whole entry): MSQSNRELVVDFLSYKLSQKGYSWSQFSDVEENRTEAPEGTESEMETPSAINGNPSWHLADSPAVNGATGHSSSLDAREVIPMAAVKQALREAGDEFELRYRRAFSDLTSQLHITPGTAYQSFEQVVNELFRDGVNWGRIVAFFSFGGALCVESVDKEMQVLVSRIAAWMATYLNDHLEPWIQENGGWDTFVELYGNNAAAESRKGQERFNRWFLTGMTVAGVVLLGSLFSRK

SMILES | IC50 (BCL-2) | IC50 (BCL-XL) | GI50 (DOHH2 cells)
O=C1CCC(N2CCN(c3ccc(C(=O)NS(=O)(=O)c4ccc(NCC5CCOCC5)c([N+](=O)[O-])c4)c(Oc4cnc5[nH]ccc5c4)c3)CC2)c2ccccc2N1 (stereo not drawn) [Compound 28, 2-((1H-pyrrolo[2,3-b]pyridin-5-yl)oxy)-N-((3-nitro-4-(((tetrahydro-2H-pyran-4-yl)methyl)amino)phenyl)sulfonyl)-4-(4-(2-oxo-2,3,4,5-tetrahydro-1H-benzo[b]azepin-5-yl)piperazin-1-yl)benzamide] | 20 to 200 nM | > 2000 nM | > 5000 nM
CN1CCC(CNc2ccc(S(=O)(=O)NC(=O)c3ccc(N4CCN(C5CCCCc6c(Cl)cccc65)CC4)cc3Oc3cnc4[nH]ccc4c3)cc2[N+](=O)[O-])CC1 (stereo not drawn) [Compound 29, 2-((1H-pyrrolo[2,3-b]pyridin-5-yl)oxy)-4-(4-(1-chloro-6,7,8,9-tetrahydro-5H-benzo[7]annulen-5-yl)piperazin-1-yl)-N-((4-(((1-methylpiperidin-4-yl)methyl)amino)-3-nitrophenyl)sulfonyl)benzamide] | < 20 nM | < 20 nM | < 50 nM
O=C(NS(=O)(=O)c1ccc(NCC2CCOCC2)c([N+](=O)[O-])c1)c1ccc(N2CCN(C3CCCCc4ccc([N+](=O)[O-])cc43)CC2)cc1Oc1cnc2[nH]ccc2c1 (stereo not drawn) [Compound 30, 2-((1H-pyrrolo[2,3-b]pyridin-5-yl)oxy)-N-((3-nitro-4-(((tetrahydro-2H-pyran-4-yl)methyl)amino)phenyl)sulfonyl)-4-(4-(3-nitro-6,7,8,9-tetrahydro-5H-benzo[7]annulen-5-yl)piperazin-1-yl)benzamide] | < 20 nM | 200 to 2000 nM | 500 to 5000 nM
CN1CCN(CCNc2ccc(S(=O)(=O)NC(=O)c3ccc(N4CCN(C5CCCCc6c(Cl)cccc65)CC4)cc3Oc3cnc4[nH]ccc4c3)cc2[N+](=O)[O-])CC1 (stereo not drawn) [Compound 32, 2-((1H-pyrrolo[2,3-b]pyridin-5-yl)oxy)-4-(4-(1-chloro-6,7,8,9-tetrahydro-5H-benzo[7]annulen-5-yl)piperazin-1-yl)-N-((4-((2-(4-methylpiperazin-1-yl)ethyl)amino)-3-nitrophenyl)sulfonyl)benzamide] | < 20 nM | < 20 nM | < 50 nM
O=C(NS(=O)(=O)c1ccc(NCC2CCOCC2)c([N+](=O)[O-])c1)c1ccc(N2CCN(C3CCCCc4c3cccc4[N+](=O)[O-])CC2)cc1Oc1cnc2[nH]ccc2c1 (stereo not drawn) [Compound 33, 2-((1H-pyrrolo[2,3-b]pyridin-5-yl)oxy)-N-((3-nitro-4-(((tetrahydro-2H-pyran-4-yl)methyl)amino)phenyl)sulfonyl)-4-(4-(1-nitro-6,7,8,9-tetrahydro-5H-benzo[7]annulen-5-yl)piperazin-1-yl)benzamide] | < 20 nM | 20 to 200 nM | < 50 nM
CC(=O)Nc1ccc2c(c1)C(N1CCN(c3ccc(C(=O)NS(=O)(=O)c4ccc(NCC5CCOCC5)c([N+](=O)[O-])c4)c(Oc4cnc5[nH]ccc5c4)c3)CC1)CCCC2 (stereo not drawn) [Compound 34, 2-((1H-pyrrolo[2,3-b]pyridin-5-yl)oxy)-4-(4-(3-acetamido-6,7,8,9-tetrahydro-5H-benzo[7]annulen-5-yl)piperazin-1-yl)-N-((3-nitro-4-(((tetrahydro-2H-pyran-4-yl)methyl)amino)phenyl)sulfonyl)benzamide] | < 20 nM | 200 to 2000 nM | 500 to 5000 nM
Cc1ccc(S(=O)(=O)N2CCc3ccccc3C(N3CCN(c4ccc(C(=O)NS(=O)(=O)c5ccc(NCC6CCOCC6)c([N+](=O)[O-])c5)c(Oc5cnc6[nH]ccc6c5)c4)CC3)C2)cc1 (stereo not drawn) [Compound 35, 2-((1H-pyrrolo[2,3-b]pyridin-5-yl)oxy)-N-((3-nitro-4-(((tetrahydro-2H-pyran-4-yl)methyl)amino)phenyl)sulfonyl)-4-(4-(3-tosyl-2,3,4,5-tetrahydro-1H-benzo[d]azepin-1-yl)piperazin-1-yl)benzamide] | 20 to 200 nM | 200 to 2000 nM | 500 to 5000 nM
O=C(NS(=O)(=O)c1ccc(NCC2CCOCC2)c([N+](=O)[O-])c1)c1ccc(N2CCN(C3CCCCc4ccc(F)cc43)CC2)cc1Oc1cnc2[nH]ccc2c1 (stereo not drawn) [Compound 37, 2-((1H-pyrrolo[2,3-b]pyridin-5-yl)oxy)-4-(4-(3-fluoro-6,7,8,9-tetrahydro-5H-benzo[7]annulen-5-yl)piperazin-1-yl)-N-((3-nitro-4-(((tetrahydro-2H-pyran-4-yl)methyl)amino)phenyl)sulfonyl)benzamide] | < 20 nM | 200 to 2000 nM | 50 to 500 nM
O=C(NS(=O)(=O)c1ccc(NCC2CCC3(CC2)COC3)c([N+](=O)[O-])c1)c1ccc(N2CCN(C3CCCCc4c(Cl)cccc43)CC2)cc1Oc1cnc2[nH]ccc2c1 (stereo not drawn) [Compound 38, 2-((1H-pyrrolo[2,3-b]pyridin-5-yl)oxy)-N-((4-(((2-oxaspiro[3.5]nonan-7-yl)methyl)amino)-3-nitrophenyl)sulfonyl)-4-(4-(1-chloro-6,7,8,9-tetrahydro-5H-benzo[7]annulen-5-yl)piperazin-1-yl)benzamide] | < 20 nM | 200 to 2000 nM | < 50 nM
CC(=O)N1CCN(CCNc2ccc(S(=O)(=O)NC(=O)c3ccc(N4CCN(C5CCCCc6c(Cl)cccc65)CC4)cc3Oc3cnc4[nH]ccc4c3)cc2[N+](=O)[O-])CC1 (stereo not drawn) [Compound 39, 2-((1H-pyrrolo[2,3-b]pyridin-5-yl)oxy)-N-((4-((2-(4-acetylpiperazin-1-yl)ethyl)amino)-3-nitrophenyl)sulfonyl)-4-(4-(1-chloro-6,7,8,9-tetrahydro-5H-benzo[7]annulen-5-yl)piperazin-1-yl)benzamide] | < 20 nM | 20 to 200 nM | < 50 nM
O=C(NS(=O)(=O)c1ccc(NCC2CCOCC2)c([N+](=O)[O-])c1)c1ccc(N2CCN([C@@H]3CCCCc4c(O)cccc43)CC2)cc1Oc1cnc2[nH]ccc2c1 [Compound 40, (R)-2-((1H-pyrrolo[2,3-b]pyridin-5-yl)oxy)-4-(4-(1-hydroxy-6,7,8,9-tetrahydro-5H-benzo[7]annulen-5-yl)piperazin-1-yl)-N-((3-nitro-4-(((tetrahydro-2H-pyran-4-yl)methyl)amino)phenyl)sulfonyl)benzamide] | 20 to 200 nM | > 2000 nM | 500 to 5000 nM
O=C(NS(=O)(=O)c1ccc(NCCN2CC3CC2CO3)c([N+](=O)[O-])c1)c1ccc(N2CCN(C3CCCCc4c(Cl)cccc43)CC2)cc1Oc1cnc2[nH]ccc2c1 (stereo not drawn) [Compound 41, 2-((1H-pyrrolo[2,3-b]pyridin-5-yl)oxy)-N-((4-((2-(2-oxa-5-azabicyclo[2.2.1]heptan-5-yl)ethyl)amino)-3-nitrophenyl)sulfonyl)-4-(4-(1-chloro-6,7,8,9-tetrahydro-5H-benzo[7]annulen-5-yl)piperazin-1-yl)benzamide] | < 20 nM | < 20 nM | 50 to 500 nM
O=C(NS(=O)(=O)c1ccc(NCCN2CCC3(CC2)COC3)c([N+](=O)[O-])c1)c1ccc(N2CCN(C3CCCCc4c(Cl)cccc43)CC2)cc1Oc1cnc2[nH]ccc2c1 (stereo not drawn) [Compound 42, 2-((1H-pyrrolo[2,3-b]pyridin-5-yl)oxy)-N-((4-((2-(2-oxa-7-azaspiro[3.5]nonan-7-yl)ethyl)amino)-3-nitrophenyl)sulfonyl)-4-(4-(1-chloro-6,7,8,9-tetrahydro-5H-benzo[7]annulen-5-yl)piperazin-1-yl)benzamide] | < 20 nM | < 20 nM | 50 to 500 nM
CN1CC2CC1CN2CCNc1ccc(S(=O)(=O)NC(=O)c2ccc(N3CCN(C4CCCCc5c(Cl)cccc54)CC3)cc2Oc2cnc3[nH]ccc3c2)cc1[N+](=O)[O-] (stereo not drawn) [Compound 43, 2-((1H-pyrrolo[2,3-b]pyridin-5-yl)oxy)-4-(4-(1-chloro-6,7,8,9-tetrahydro-5H-benzo[7]annulen-5-yl)piperazin-1-yl)-N-((4-((2-(5-methyl-2,5-diazabicyclo[2.2.1]heptan-2-yl)ethyl)amino)-3-nitrophenyl)sulfonyl)benzamide] | < 20 nM | < 20 nM | 50 to 500 nM
CN1CC2CC1CC2CNc1ccc(S(=O)(=O)NC(=O)c2ccc(N3CCN(C4CCCCc5c(Cl)cccc54)CC3)cc2Oc2cnc3[nH]ccc3c2)cc1[N+](=O)[O-] (stereo not drawn) [Compound 44, 2-((1H-pyrrolo[2,3-b]pyridin-5-yl)oxy)-4-(4-(1-chloro-6,7,8,9-tetrahydro-5H-benzo[7]annulen-5-yl)piperazin-1-yl)-N-((4-(((2-methyl-2-azabicyclo[2.2.1]heptan-5-yl)methyl)amino)-3-nitrophenyl)sulfonyl)benzamide] | < 20 nM | < 20 nM | 50 to 500 nM
CN1CCc2ccccc2C(N2CCN(c3ccc(C(=O)NS(=O)(=O)c4ccc(NCC5CCOCC5)c([N+](=O)[O-])c4)c(Oc4cnc5[nH]ccc5c4)c3)CC2)C1=O (stereo not drawn) [Compound 45, 2-((1H-pyrrolo[2,3-b]pyridin-5-yl)oxy)-4-(4-(3-methyl-2-oxo-2,3,4,5-tetrahydro-1H-benzo[d]azepin-1-yl)piperazin-1-yl)-N-((3-nitro-4-(((tetrahydro-2H-pyran-4-yl)methyl)amino)phenyl)sulfonyl)benzamide] | < 20 nM | 200 to 2000 nM | 500 to 5000 nM
O=C(NS(=O)(=O)c1ccc(NCC2CC3(COC3)C2)c([N+](=O)[O-])c1)c1ccc(N2CCN(C3CCCCc4c(Cl)cccc43)CC2)cc1Oc1cnc2[nH]ccc2c1 (stereo not drawn) [Compound 46, 2-((1H-pyrrolo[2,3-b]pyridin-5-yl)oxy)-N-((4-(((2-oxaspiro[3.3]heptan-6-yl)methyl)amino)-3-nitrophenyl)sulfonyl)-4-(4-(1-chloro-6,7,8,9-tetrahydro-5H-benzo[7]annulen-5-yl)piperazin-1-yl)benzamide] | < 20 nM | 20 to 200 nM | < 50 nM
